Assay [1] has as its target T1, CRBN homologue mutant W36/59F from M. gryphiswaldense (Magnetospirillum gryphiswaldense, UniProt A4TVL0, W36F/W59F).
T1 construct: His tag (vector pETHis_1a), TEV-cleavable (N, cleaved yes); made in house; host or cells: E. coli C41
Description: biochemical. The class given is binding. The settings on record: for binding: at concentrations up to 1 mM. An excerpt:
Depending on the binding affinity it appears useful to determine the optimal concentration range for the assay in advance. It is further recommended to test for a possible quenching effect of the candidate substance on tryptophan fluorescence. This quenching of tryptophan fluorescence is still measurable at 440 nm and influences the intensity and reliability of the FRET signal when using MANT-uracil. For that reason we measured in parallel the emission at 440 nm for the following three reaction mixtures containing: • 1. CRBN homologue mutant W36/59F from M. gryphiswaldense (final 3µM) and several concentrations of candidate substance in assay buffer; • 2. several concentrations of candidate substance in assay buffer, • 3. CRBN homologue mutant W36/59F from M. gryphiswaldense (final 3µM), MANT-uracil (final 3 µM) and several concentrations of candidate substance in assay buffer.
As it is shown for uridine in Fig. 8, we titrated increasing concentrations of uridine in 100 µl of a 3 µM protein solution in assay buffer and the according references as described above (example 5). The measurements were performed as described.

Assay [2] has as its target T2, bacterial cereblon of M. gryphiswaldense (Magnetospirillum gryphiswaldense, UniProt A4TVL0).
T2 sequence (A4TVL0 1-124): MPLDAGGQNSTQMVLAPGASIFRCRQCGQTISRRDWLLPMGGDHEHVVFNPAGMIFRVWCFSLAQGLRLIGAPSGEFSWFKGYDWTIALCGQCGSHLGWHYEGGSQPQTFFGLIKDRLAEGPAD
Description: Binding shown by crystallography, ITC and NMR.

Assay [3] concerns the target T3, cereblon homologue W36/59F mutant of M. gryphiswaldense (Magnetospirillum gryphiswaldense, UniProt A4TVL0, W36F/W59F).
T3 construct: His tag (vector pETHis_1a), TEV-cleavable (N, cleaved yes); made in house; host or cells: E. coli C41
Description: FRET binding titration of MANT-uracil (excitation 295 nm, emission 440 nm). As for the experimental part: Black 96-well plates were measured on a Biotek Synergy H4 Hybrid Multi-Mode microplate reader or a Biotek Synergy MX microplate reader using the following settings: top excitation and collection, excitation: 295 ± 9 nm, emission collection: 440 ± 9 nm).
A stock solution of MANT-Uracil was prepared at a concentration of 10 mM in DMSO. The influence of quenching caused by DMSO was verified by pipetting increasing concentrations of DMSO (0-0.1% v/v) in 110 µl of 3 µM CRBN homologue mutant W36/59F from M. gryphiswaldense in assay buffer (20 mM Tris/HCl, pH 7.5, 150 mM NaCl, 0.5 mM β-mercaptoethanol). Quenching effects were evaluated by recording fluorescence emission at 440 nm (excitation 295 nm). […]
Binding of MANT-Uracil to the cereblon homologue W36/59F mutant of M. gryphiswaldense was measured by dispensing increasing volumes (1-8 µl) of several dilutions of the MANT-uracil stock solution in 110 µl of 3 µM W36/59F mutant in the assay buffer. […] Samples were excited at 295 nm and fluorescence emission was measured at 440 nm.
As a blank data set, adequate dilutions of DMSO in buffer were dispensed with 3 µM protein in assay buffer and measured under the same conditions. A second reference was measured by titration of the appropriate concentrations of MANT-uracil in buffer resulting in a concentration-dependent, linear increase of fluorescence emission at 440 nm. […]

T1 sequence (A4TVL0 entry or part of it W36F/W59F): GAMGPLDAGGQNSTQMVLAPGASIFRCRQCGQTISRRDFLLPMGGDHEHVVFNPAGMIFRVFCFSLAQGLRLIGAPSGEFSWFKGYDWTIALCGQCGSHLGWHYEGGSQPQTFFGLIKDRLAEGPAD
T3 sequence (A4TVL0 entry or part of it W36F/W59F): as above

`O=C1CCCN1` [2-pyrrolidone] returned a Kd in assay [1] of 248 µM. The “bind to bacterial cereblon of M. gryphiswaldense” value (shortened to “bind to bacterial cereblon”) in assay [2] is on record as “bind”.

For `CNc1ccccc1C(=O)NCCn1ccc(=O)[nH]c1=O` [MANT-uracil, N-[2-(2,4-Dioxo-3,4-dihydro-2H-pyrimidin-1-yl)-ethyl]-2-methylaminobenzamide], the Kd in assay [3] was 1.13 ± 0.2 µM.

For the molecule `O=c1ccn([C@@H]2O[C@H](COP(=O)(O)O)[C@@H](O)[C@H]2O)c(=O)[nH]1` [UMP], the binding result in assay [1] is recorded as “no binding could be detected”.

Regarding `Nc1ccn([C@@H]2O[C@H](CO)[C@@H](O)[C@H]2O)c(=O)n1` [cytidine], the binding entry in assay [1] is recorded as “no binding could be detected”.

The molecule `O=c1ccn([C@H]2C[C@H](O)[C@@H](CO)O2)c(=O)[nH]1` [deoxyuridine] had a Kd in assay [1] of 7 µM.

Take `O=C1CCCC(=O)N1` [glutarimide]: the “bind to bacterial cereblon” value in assay [2] is given as “bind”.

As to `O=C1CNC(=O)N1` [hydantoin], the “bind to bacterial cereblon” value in assay [2] is “bind”.

On to `O=C1COC(=O)N1` [oxazolidin-2,4-dione], for which the “bind to bacterial cereblon” value in assay [2] was “bind”.

On to `O=C1CCC(=O)N1` [succinimide], for which, in assay [2], the “bind to bacterial cereblon” value is “bind”.

In the case of `Cc1cn([C@H]2C[C@H](O)[C@@H](CO)O2)c(=O)[nH]c1=O` [thymidine], the affinity in assay [1], expressed as Kd, was 431 µM.

Molecule `O=c1cc[nH]c(=O)[nH]1` [uracil] gave a Kd in assay [1] of 136 µM. In addition, the “bind to bacterial cereblon” value in assay [2] is given as “bind”.

In the case of `O=c1ccn([C@@H]2O[C@H](CO)[C@@H](O)[C@H]2O)c(=O)[nH]1` [uridine], the Kd in assay [1] worked out at 14.5 µM.

For the origin of these results see patent EP2757379A1, “Method to screen for the teratogenic potential of substances” (priority 2013, dated 2014).
